In patent US6191124A, “Methanol derivatives for treatment of retroviral infections especially HIV infections” (priority 1997, dated 2001):

Key:
HIV infection / AIDS = settings: cited from earlier work
[1] = test system: viral reverse transcriptase; settings: cited from earlier work
HIV-1 protease [2] = biological target: T1, HIV-1 protease (Human immunodeficiency virus type 1 group M subtype B, UniProt P04585); test: HIV protease screening assay (fluorescently labeled biotinylated substrate, streptavidin beads), percent inhibition; type: biochemical
Description: The HIV protease screening assay is based on fluorescently labeled substrate which can be resolved from nonlabeled cleavage product using special beads coated with streptavidin. The substrate is biotinylated at the amino terminal arginine and fluorescently labeled with fluorescein isothiocynate (FITC) at the carboxyl terminal lysine. This assay has been employed to detect novel, nonpeptidic inhibitors of HIV-1 protease. Substrate (20 μl of 0.2 μM), sample (10 μl of desired concentration), and enzyme (10 μl of 0.1 μM) are added to a 96 well pandex plate. The assay is run in 0.1 M sodium acetate buffer at pH 5.5 in the presence of 1.0 M sodium chloride and 0.05% NP-40 with incubated in the dark for one hour at room temperature. Strepavidin coated polystyrene beads {40 μl of 0.1% (w/v)} are added and the plate is incubated in the dark for an additional half hour. The labeled cleavage product is separated from the unreacted substrate via filtration and is read on the Idexx screen machine. The data are analyzed by appropriate computer algorithms to ascertain percent inhibition values.

HIV-1 protease [3] = biological target: T1, HIV-1 protease; test: Determination of Ki values, HIV-1 protease; type: biochemical; settings: Table 1; read-out: Ki
Description: Determination of Ki values utilizes the same materials and equipment employed for percent inhibition studies. Two-fold serial dilutions are made for a given inhibitor from 2, 3 or 4 starting concentrations with a total of 24, 36 or 48 individual inhibitor concentrations. These dilutions are performed utilizing the BioMek robotics system. The assay consists of 10 μL or 40 nM HIV-1 protease, 10 μL of the various inhibitor concentrations, and 20 μL of 200 μM substrate (40 μL total). The reaction is allowed to proceed for 90 min at room temperature, terminated with 40 μL of avidin beads and processed (supra vide). An inhibitor with a known Ki is run in parallel to verify the validity of the assay. The data is processed utilizing a computer program employing a nonlinear least square analysis of the data to generate the Ki values.

HIV-1IIIB = HIV-1IIIB replication in human T-cell line H9 (p24 core antigen ELISA); type: cell-based; settings: human T-cell lines, e.g., H9, infected with HIV-1IIIB
Description: Several compounds of the present invention, such as 2,3-dimethyl-[…]-(2-phenylethyl)imidazo[2,1-b]thiazole-5-methanol were tested in known human cell lines, such as human T-cell lines, e.g., H9, which were infected with HIV-1IIIB. […] The H9 cell line was originally derived from the peripheral blood of a human lymphoma patient and extensively cloned so that the cells were highly susceptible to HIV infection. Virus-free H9 cells were maintained in a humidified 5% CO2 atmosphere at 37° C. in RPMI Complete (RC) medium, which was composed of RPMI 1640 supplemented with 10% heat-inactivated fetal calf serum (FCS), 10 mM Hepes, 2 mM L-glutamine, 100 μg/ml streptomycin, and 100 U/ml penicillin. H9 cultures were split 1:5 twice weekly for a maximum 12-15 times. […]
HIVIIIb 's ability to replicate efficiently in human T lymphoblastoid cell lines made this strain of HIV the logical choice for protease inhibitor screen. […] The titer, measured at the 50% Tissue Culture Infectious Dose (TCID50), was determined by the Reed-Muench method of statistical analysis to determine the 50% infectivity endpoint.
The standard acute infectivity assay for the evaluation of the inhibitors of HIV protease was performed in 96 well microplates. […] The amount of HIV p24 core antigen was quantified with an ELISA procedure by following the manufacturers directions (Coulter Diagnostics). […]

HIV = settings: cited from earlier work
hepatic glycolysis = settings: cited from earlier work
[4] = in vivo; cited from earlier work

Cc1cn([C@H]2C[C@H](N=[N+]=[N-])[C@@H](CO)O2)c(=O)[nH]c1=O [AZT, 3'-azido-3'-deoxy-thymidine]
decrease of mortality and frequency of opportunistic infections (HIV infection / AIDS): shown to decrease the morality and frequency of opportunistic infections associated with AIDS
inhibition of viral reverse transcriptase [1]: known inhibitor of viral reverse transcriptase

Cc1sc2ncc(C(O)CCc3ccccc3)n2c1C (stereo not drawn) [Example 11, 2,3-Dimethyl-α-(2-phenylethyl)imidazo[2,1-b]thiazole-5-methanol]
% Protease Inhibition (HIV-1 protease [2]; 1.1-1.3 μM (Table 1)): 96%
% Protease Inhibition (HIV-1 protease [2]; 3.3-3.7 μM (Table 1)): 109%
inhibition at 10 µM (HIV-1 protease [2]; read-out: % Protease Inhibition): 112%
Ki (HIV-1 protease [3]): 120 nM
inhibition of retroviral replication (HIV-1IIIB): found to inhibit retroviral replication

O=c1[nH]cnc2c1ncn2[C@H]1CC[C@@H](CO)O1 [ddI]
activity against HIV in vitro (HIV): potent activity against HIV in vitro
stimulation of hepatic glycolysis (hepatic glycolysis): shown to stimulate hepatic glycolysis leading to irreversible liver damage
limiting toxicity [4]: peripheral neuropathy and pancreatitis
